The subject of series [1] is PBQ-induced writhing in ICR male mice. Nature of the series: Phenyl-p-quinone (PBQ)-induced writhing experiment using mice (effect on pain). The series is classed as in vivo. The conditions noted are these: oral, PBQ (0.02%) i.p. after 1 hour; for I.A. (inhibitory activity), % inhibition rate class: writhing counted for 10 min. The procedure: In order to evaluate the effect on pain of the compounds prepared in the Examples 1 to 9, behaviors such as twisting or writhing of body resulted from pain were verified by the phenyl-p-quinone (PBQ)-induced writhing experiment using mice.
5 week-old ICR male mice were used as experimental animals and PBQ (0.02%), as a chemical stimulator. The suspensions of 20 mg of the compounds of the present invention and an excipient such as Na-CMC (sodium carboxymethyl cellulose) in 10 mL of saline were used as test compounds. The test compounds were orally administered to the mice and after 1 hour, PBQ was intraperitoneally administrated in an amount of 10 mL per kg of body weight. The writhing number of each mouse was measured for 10 min starting from 5 min after the administration, and the analgesic effect was verified by counting the reduced number compared to the control group administered with only excipient and calculating the % inhibitory rate according to the following Formula 2. Also, equivalent amounts of SB-705498 were administered as a reference compound for the comparison of the effect on pain between SB-705498 and the compounds of the present invention. % inhibition rate=(writhing # of control group−writhing # of test group)/writhing # of control group×100 [Formula 2]
The inhibitory activity was evaluated from the obtained % inhibition rate, according to the following parameters.

The subject of series [2] is SD rats (Sprague-Dawley rats). Nature of the series: Assay for body temperature change (rectal temperature) in SD rats. The series is classed as in vivo. The conditions noted are these: single oral administration, rectal temperature up to 8 hr. The procedure:
With the knowledge that some TRPV1 antagonists show the side effect of increasing the body temperature (Gavva et al., 2008, Pain, 136, 202-210), changes in body temperature associated with the compounds prepared in the Examples of the present invention were assessed.
7-week-old SD rats (Sprague-Dawley rats) were employed for this evaluation. Each of the compounds of the Examples was orally administered once at a dose of 10 ml/kg by compulsion. Before administration, the compounds were suspended, together with the excipient Na-CMC (sodium carboxymethyl cellulose), in saline 10 mL. Rectal temperatures of the rats were measured 1 hr and immediately (0 hr) prior to administration, and at the 30 min, 1 hr, 2 hr, 4 hr, 6 hr and 8 hr marks after administration using a thermometer (Shibaura Electronic Corporation, TD-300). The data were expressed as mean values ±S.E.M. Statistical data was analyzed by one way ANOVA, and statistical significance was analyzed in comparison with the excipient-treated control using Dunnett's t-test. Meanwhile, N-(4-(6-(4-(trifluoromethyl)phenyl)[…])benzo[d]thiazol-2-yl)acetamide (hereinafter referred to as “AMG-517”) was used at a dose of 3 mg/kg, as a positive control.

Series [3] concerns the target T1, human vanilloid-1 (TRPV1) (Homo sapiens, UniProt Q8NER1).
T1 construct: expressed in transfected cells; host or cells: HEK293 Tet-on (hVR-1-HEK293), expression induced with doxycycline
Kind of series: Inhibitory effect on capsaicin-stimulated calcium influx via a vanilloid receptor in hVR-1-HEK293 cells (Fluo-3/AM). The series is classed as cell-based. The conditions noted are these: 1 μM capsaicin. From the text:
In order to confirm the antagonistic activities of the inventive compounds, inhibitory effects of the compounds on calcium influx were examined as follows.
hVR-1-HEK293 cell line is a human embryonic kidney (HEK) cell 293 Tet-on strain transformed with a human vanilloid-1 gene (pTRE2hyg-hVR-1 7.8 kb). The cell line can modulate the expression of TRPV1, depending on whether doxycycline, a derivative of tetracycline, is present or not.
In order to elucidate the inhibitory effect on calcium influx, the expression of TRPV1 was induced by culturing hVR-1-HEK293 cell line in a medium containing doxycycline for 2 days.
Specifically, hVR-1-HEK293 cells were cultured in a T75 flask to about 80% confluency, separated from the flask by treating with trypsin solution, and then collected by centrifugation. The cells were suspended in a medium containing 1 μg/mL of doxycycline, and the resulting suspension was diluted to a concentration of 2˜4×10^5 cells/mL 100 μL of the cell suspension was placed in each well of a 96-well black plate. The cells were cultured in 5% CO2 incubator at 37° C. for 2 days, and used for the following procedure.
The compounds, prepared in the Examples 1 to 9 of the present invention, were dissolved in dimethyl sulfoxide (DMSO) to obtain compound samples.
The cells prepared in 1) above were cultured at 37° C. for 90 min in a solution containing Fluo-3/AM, a fluorescent dye, as a calcium indicator so that the fluorescent dye was permeated into the cells. Then the cells were washed three times with D-PBS (Dulbecco's phosphate buffered saline) containing 10 mM HEPES (4-(2-hydroxyethyl)-1-piperazine ethanesulfonic acid) to remove the residual fluorescent dye. 193 μL of D-PBS was added to each well, followed by addition of various concentrations (0.015˜2000 nM) of the compounds. In order to stimulate calcium influx through a vanilloid receptor, the cells were treated with 1 μM of capsaicin. The inhibitory effect of various concentrations (0.015˜2000 nM) of compounds on intracellular calcium influx was measured by using a fluorimeter. Equivalent amounts of (R)-1-(2-bromophenyl)-3-(1-(5-(trifluoromethyl)pyridin-2-yl)pyrrolidin-3-yl)urea (also, referred to SB-705498) was used as a control group. The obtained data were input to the Hill equation represented by the following formula I and the values were analyzed: Intracellular calcium influx=(florescent intensity of experimental group−florescent intensity of background)/(florescent intensity of positive control−florescent intensity of background)×100 [Formula 1]
The inhibitory activities were evaluated from the obtained intracellular calcium influx values according to the following criteria.

[4] abbreviates: compounds 0.015˜2000 nM, read-out: I.A. (inhibitory activity), IC50 class.

For orientation: IC50 means the concentration at which inhibition is half-maximal.

Like-named read-outs stand apart in the source and are kept apart here.

T1 sequence (Q8NER1 whole entry): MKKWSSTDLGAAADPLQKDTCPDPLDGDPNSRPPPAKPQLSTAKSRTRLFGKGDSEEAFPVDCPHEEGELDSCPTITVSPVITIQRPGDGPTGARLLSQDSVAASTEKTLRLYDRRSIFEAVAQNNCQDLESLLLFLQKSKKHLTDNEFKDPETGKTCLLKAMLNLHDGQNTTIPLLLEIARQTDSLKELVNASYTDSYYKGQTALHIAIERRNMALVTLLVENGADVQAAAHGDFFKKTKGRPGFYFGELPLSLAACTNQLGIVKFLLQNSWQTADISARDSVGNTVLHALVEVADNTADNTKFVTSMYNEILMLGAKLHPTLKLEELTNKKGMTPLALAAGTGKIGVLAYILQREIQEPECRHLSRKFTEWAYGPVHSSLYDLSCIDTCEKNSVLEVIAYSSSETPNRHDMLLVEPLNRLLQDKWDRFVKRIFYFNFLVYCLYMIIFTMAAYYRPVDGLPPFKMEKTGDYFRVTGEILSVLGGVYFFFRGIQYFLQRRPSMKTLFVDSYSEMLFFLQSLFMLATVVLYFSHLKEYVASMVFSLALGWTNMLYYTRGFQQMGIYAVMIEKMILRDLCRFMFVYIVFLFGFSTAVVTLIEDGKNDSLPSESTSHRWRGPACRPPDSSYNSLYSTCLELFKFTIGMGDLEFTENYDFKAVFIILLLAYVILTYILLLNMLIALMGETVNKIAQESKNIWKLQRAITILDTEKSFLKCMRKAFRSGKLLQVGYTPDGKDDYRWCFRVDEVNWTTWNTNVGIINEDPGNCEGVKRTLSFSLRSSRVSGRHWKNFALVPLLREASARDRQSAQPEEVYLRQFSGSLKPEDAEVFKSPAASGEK

In the case of `COc1ccc(N2c3cccc(-c4nc5ccc(OC(F)(F)F)cc5[nH]4)c3OC[C@@H]2CO)nc1` [Example 4, (S)-(4-(5-methoxypyridin-2-yl)-8-(6-(trifluoromethoxy)-1H-benzo[d]imidazol-2-yl)-3,4-dihydro-2H-benzo[b][1,4]oxazin-3-yl)methanol], in series [1], the “I.A. (inhibitory activity), % inhibition rate class” value was “++ (20˜50%)”. Further, the “Change in Body Temp.” value in series [2] was “+/− (±<0.5° C.)”. Besides, the IC50 in series [3] (setting [4]) was in the range of 20 to 100 nM.

Regarding `COc1ccc(N2c3cccc(-c4nc5c(Cl)cc(C(F)(F)F)cc5[nH]4)c3OC[C@@H]2CO)nc1` [Example 8, (S)-(8-(4-chloro-6-(trifluoromethyl)-1H-benzo[d]imidazol-2-yl)-4-(5-methoxypyridin-2-yl)-3,4-dihydro-2H-benzo[b][1,4]oxazin-3-yl)methanol], the “I.A. (inhibitory activity), % inhibition rate class” value in series [1] is “+++ (51-80%)”. Besides, the “Change in Body Temp.” value in series [2] is “+/− (±<0.5° C.)”. For the same molecule, in series [3] (setting [4]), the IC50 lay within 20 to 100 nM.

Consider `COc1ccc(N2c3cccc(-c4nc5cc(F)c(Cl)cc5[nH]4)c3OC[C@@H]2CO)nc1` [Example 6, (S)-(8-(6-chloro-5-fluoro-1H-benzo[d]imidazol-2-yl)-4-(5-methoxypyridin-2-yl)-3,4-dihydro-2H-benzo[b][1,4]oxazin-3-yl)methanol], for which, in series [1], the “I.A. (inhibitory activity), % inhibition rate class” value is given as “+++ (51-80%)”. Moreover, the “Change in Body Temp.” value in series [2] is “+/− (±<0.5° C.)”. In addition, the half-maximal inhibitory concentration (IC50) in series [3] (setting [4]) is 20 to 100 nM.

With `COc1ccc(N2c3cccc(-c4nc5c(Br)cc(C(F)(F)F)cc5[nH]4)c3OC[C@@H]2CO)nc1` [Example 7, (S)-(8-(4-bromo-6-(trifluoromethyl)-1H-benzo[d]imidazol-2-yl)-4-(5-methoxypyridin-2-yl)-3,4-dihydro-2H-benzo[b][1,4]oxazin-3-yl)methanol], the “I.A. (inhibitory activity), % inhibition rate class” value in series [1] was “++ (20˜50%)”. Moreover, the “Change in Body Temp.” value in series [2] is “+ (0.5^~1.0° C.)”. Moreover, the IC50 in series [3] (setting [4]) is 101 to 500 nM.

As to `COc1ccc(N2c3cccc(-c4nc5c(Br)cc(Br)cc5[nH]4)c3OC[C@@H]2CO)nc1` [Example 9, (S)-(8-(4,6-dibromo-1H-benzo[d]imidazol-2-yl)-4-(5-methoxypyridin-2-yl)-3,4-dihydro-2H-benzo[b][1,4]oxazin-3-yl)methanol], the “I.A. (inhibitory activity), % inhibition rate class” value in series [1] was “++ (20˜50%)”. The “Change in Body Temp.” value in series [2] is reported as “+ (0.5^~1.0° C.)”. Further, the IC50 in series [3] (setting [4]) lay in the range of 101 to 500 nM.

As to `COc1ccc(N2c3cccc(-c4nc5c(Br)cc(OC(F)(F)F)cc5[nH]4)c3OC[C@@H]2CO)nc1` [Example 5, (S)-(8-(4-bromo-6-(trifluoromethoxy)-1H-benzo[d]imidazol-2-yl)-4-(5-methoxypyridin-2-yl)-3,4-dihydro-2H-benzo[B][1,4]oxazin-3-yl)methanol], the “I.A. (inhibitory activity), % inhibition rate class” value in series [1] is “+++ (51-80%)”. Also, the “Change in Body Temp.” value in series [2] is “+ (0.5^~1.0° C.)”. In series [3] (setting [4]), the IC50 was less than 20 nM.

Regarding `COc1ccc(N2c3cccc(-c4nc5ccc(C(F)(F)F)cc5[nH]4)c3OC[C@@H]2CO)nc1` [Example 2, (S)-(4-(5-methoxypyridin-2-yl)-8-(6-(trifluoromethyl)-1H-benzo[d]imidazol-2-yl)-3,4-dihydro-2H-benzo[b][1,4]oxazin-3-yl)methanol], in series [1], the “I.A. (inhibitory activity), % inhibition rate class” value was “++ (20˜50%)”. Moreover, in series [2], the “Change in Body Temp.” value was “+ (0.5^~1.0° C.)”. Also, the IC50 in series [3] (setting [4]) is 20 to 100 nM.

`COc1ccc(N2CCOc3c(-c4nc5ccc(C(C)(C)C)cc5[nH]4)cccc32)nc1` [Example 1, 8-(6-tert-Butyl-1H-benzo[d]imidazol-2-yl)-4-(5-methoxypyridin-2-yl)-3,4-dihydro-2H-benzo[b][1,4]oxazine]: in series [1], the “I.A. (inhibitory activity), % inhibition rate class” value is “++ (20˜50%)”. Moreover, the “Change in Body Temp.” value in series [2] is on record as “+/− (±<0.5° C.)”. Besides, in series [3] (setting [4]), the IC50 is 101 to 500 nM.

For `COc1ccc(N2c3cccc(-c4nc5cc(Cl)c(Cl)cc5[nH]4)c3OC[C@@H]2CO)nc1` [Example 3, (S)-(8-(5,6-dichloro-1H-benzo[d]imidazol-2-yl)-4-(5-methoxypyridin-2-yl)-3,4-dihydro-2H-benzo[B][1,4]oxazin-3-yl)methanol], in series [1], the “I.A. (inhibitory activity), % inhibition rate class” value was “++ (20˜50%)”. In series [2], the “Change in Body Temp.” value is “+/− (±<0.5° C.)”. The IC50 in series [3] (setting [4]) fell in the range of 20 to 100 nM.

For the molecule `O=C(Nc1ccccc1Br)N[C@@H]1CCN(c2ccc(C(F)(F)F)cn2)C1` [SB-705498, (R)-1-(2-bromophenyl)-3-(1-(5-(trifluoromethyl)pyridin-2-yl)pyrrolidin-3-yl)urea, reference compound], the “% inhibition rate of writhing” value in series [1] is less than 20%. Further, the IC50 in series [3] (read-out: IC50 on calcium influx) is 100 to 150 nM.

The values are drawn from patent publication US8026235B1, “Pyridyl benzoxazine derivatives, pharmaceutical composition comprising the same, and use thereof” (Daewoong Pharmaceutical Co., Ltd., priority 2010, dated 2011).
